In test [1] the test system is histamine stimulated parietal cell. The experiment in a line: Isolated parietal cell assay, inhibition of 14C-aminopyrine accumulation, histamine stimulated. The conditions noted are these: Example 48, 37° C., read-out: IC50 vhist (inhibition of 14C-AP accumulation in histamine stimulated parietal cell). The test is classed as cell-based, rabbit. On the procedure:
(§1) Isolated Parietal Cell Assay
(§2) The isolated parietal cell assay was conducted using the procedures of Batzri, S. et al., Biochemica et Biophysica Acta 508, 328 (1978) and Soll, A. H. Am. J. Physiol. 238, G366 (1980). Basically, parietal cells were isolated from the fundic mucosa of rabbit stomachs by a four-stage collagenase digestion process. The supernatant fractions from the last two stages of this process contain the individual parietal cells. This cell suspension was centrifuged and reconstituted in a modified Hank's buffer to contain 1-2×10^6 cells/ml. […] This accumulation was stimulated by histamine and was blocked by H2 antagonists. The cells were incubated with 0.4-0.5×10^6 cpm ^14 C-AP, with various concentrations of histamine as a stimulant, 1×10^-5 M isobutylmethylxanthine, and the test compound added in a 20 μl volume of buffer or DMSO. The flasks were incubated in a shaking water bath at 37° C. for 20 minutes. Two aliquots were then taken from each flask and cell pellets were collected by centrifugation. The pellets were solubilized with Protosol (New England Nuclear) and radioactivity determined by liquid scintillation spectrometry. Data is presented as the IC50 vhist, the concentration of compound required to inhibit ^14 C-AP accumulation in the histamine stimulated parietal cell by 50%. When dibutyryl cAMP was used to stimulate the cells instead of histamine, a similar inhibition of ^14 C-AP accumulation was measured and the data are presented as the IC50 vcAMP, the concentration required to inhibit ^14 C-AP accumulation in the cAMP stimulated parietal cells by 50%.

In another test the test system is acid output. The experiment in a line: Gastric secretion, acid output in pylorus ligated rats. It counts as in vivo, male Charles River Sprague Dawley derived rats. The conditions noted are these: Example 50, i.d. or s.c., four hours after pylorus ligation, compared to control; for response vs control in vivo at 20 mg/kg / response vs control in vivo at 40 mg/kg: Rattus norvegicus, 4 h, read-out: % Acid Secreted at mpK; for response vs control in vivo at 40 mg/kg: @ 40 mpK. On the procedure: The inhibitory activity of the compounds on acid output was tested using pylorus ligation in a modification of the procedure of Shay, H. et al., Gastroenterology 26, 906 (1954). Basically, male Charles River Sprague Dawley derived rats weighing 150-300 grams were deprived of food but not water for 18-24 hours prior to use. Water was withheld during the experiment, however. The rats were weighed, anesthetized with ether and the pylorus ligated according to the method of Shay et al., supra. Treatment or vehicle control was then administered intraduodenally (i.d.) or subcutaneously (s.c.). Rats were housed two/cage and sacrificed with CO2 four hours after ligation. The stomachs were removed, rinsed, and contents emptied into a graduated centrifuge tube. The tubes were centrifuged, the volume of gastric juice recorded, and any samples obviously contaminated by feces, food or blood were eliminated. A 1 ml aliquot of gastric juice was titrated with 0.1N NaOH to a pH of 7.0-7.4. The volume of gastric juice secreted, the acid concentration, and the product of the volume times the concentration, i.e., the total amount of acid secreted, were measured.

Test [2] relates to cAMP stimulated parietal cells. The experiment in a line: Isolated parietal cell assay, inhibition of 14C-aminopyrine accumulation, dibutyryl cAMP stimulated. The note with it: Example 48, 37° C., read-out: IC50 vcAMP (inhibition of 14C-AP accumulation in cAMP stimulated parietal cells). It counts as cell-based, rabbit. On the procedure:
as §1, §2

The target of test [3] is T1, parietal cell H^+ K^+ ATPase (Oryctolagus cuniculus, UniProt P27112).
T1 construct: determined in fundic mucosa from New Zealand white rabbits which were homogenized; from tissue; host or cells: fundic mucosa of New Zealand white rabbits, homogenized; membrane protein
T1 sequence (P27112 2-1035 limits assumed): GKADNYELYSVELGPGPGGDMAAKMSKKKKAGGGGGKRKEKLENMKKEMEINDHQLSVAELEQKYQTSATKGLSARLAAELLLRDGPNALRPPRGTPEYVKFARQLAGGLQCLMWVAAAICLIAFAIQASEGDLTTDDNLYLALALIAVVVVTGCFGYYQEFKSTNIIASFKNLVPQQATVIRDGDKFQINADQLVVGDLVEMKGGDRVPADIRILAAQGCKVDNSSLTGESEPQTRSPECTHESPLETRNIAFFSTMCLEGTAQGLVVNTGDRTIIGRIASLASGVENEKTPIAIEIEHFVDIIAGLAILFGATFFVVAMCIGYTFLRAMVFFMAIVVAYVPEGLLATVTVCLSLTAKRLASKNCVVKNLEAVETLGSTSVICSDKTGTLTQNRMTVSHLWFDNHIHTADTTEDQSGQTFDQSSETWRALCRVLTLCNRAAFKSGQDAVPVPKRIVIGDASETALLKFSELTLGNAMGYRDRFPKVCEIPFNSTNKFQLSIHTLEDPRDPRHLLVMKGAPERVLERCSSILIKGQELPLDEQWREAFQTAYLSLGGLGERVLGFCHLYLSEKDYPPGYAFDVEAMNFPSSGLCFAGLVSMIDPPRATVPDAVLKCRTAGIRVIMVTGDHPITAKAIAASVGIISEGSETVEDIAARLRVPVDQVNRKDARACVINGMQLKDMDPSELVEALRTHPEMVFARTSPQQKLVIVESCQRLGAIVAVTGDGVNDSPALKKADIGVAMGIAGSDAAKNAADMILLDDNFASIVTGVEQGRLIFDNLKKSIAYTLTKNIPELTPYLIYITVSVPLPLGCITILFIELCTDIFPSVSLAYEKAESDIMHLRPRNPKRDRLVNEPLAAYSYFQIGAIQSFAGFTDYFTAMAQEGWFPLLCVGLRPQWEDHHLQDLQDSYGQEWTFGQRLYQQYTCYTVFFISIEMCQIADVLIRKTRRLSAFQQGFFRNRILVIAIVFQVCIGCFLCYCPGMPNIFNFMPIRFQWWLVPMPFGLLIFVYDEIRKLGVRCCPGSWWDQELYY
T1 sequence (P18597 whole entry partner): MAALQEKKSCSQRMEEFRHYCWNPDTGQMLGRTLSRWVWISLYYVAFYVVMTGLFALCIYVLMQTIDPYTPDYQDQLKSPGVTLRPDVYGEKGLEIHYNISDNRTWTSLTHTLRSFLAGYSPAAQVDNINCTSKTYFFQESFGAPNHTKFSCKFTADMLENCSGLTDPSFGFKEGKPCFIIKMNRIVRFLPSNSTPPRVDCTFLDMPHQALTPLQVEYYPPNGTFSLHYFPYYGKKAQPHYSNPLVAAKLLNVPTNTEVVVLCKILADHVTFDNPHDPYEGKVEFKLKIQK
The experiment in a line: Inhibition of parietal cell H+ K+ ATPase. The test is classed as biochemical, New Zealand white rabbits. The conditions noted are these: Example 49; for inhibition at 100 µM: @ 10^-4 M, read-out: % Inhibition at Concentration (H+ K+ ATPase); for IC50: given as "50% @ x μM", read-out: % Inhibition at Concentration (H+ K+ ATPase): concentration given for 50% inhibition. The method, then: Inhibition of Parietal Cell H^+ K^+ ATPase
The activity was measured in a 1 ml incubation volume containing 50 mM Tris pH 7.4, 2 mM MgCl2, 2 mM Na2 ATP, with or without 20 mM KCl and vehicle control (dimethylsulfoxide) or test compound added in a 0.02 ml volume. Typically, 20-50 μg membrane protein was added and the tubes were preincubated with test compound for 10 minutes at 37° C. Substrate, Na2 ATP, was then added and the tubes were incubated for another 15 minutes at 37° C. The reaction was stopped by the addition of 1 ml 14% trichloroacetic acid and the samples were centrifuged at 2,000 xg for 10 minutes. The amount of inorganic phosphate present in an aliquot of supernatant was determined. H^+ K^+ ATPase activity was determined after correcting for the basal (Mg^++ only) enzyme activity present in the membrane preparation.

The values below come from patent publication US4861897A, “2-Aryloxyalkylaminobenzoxazoles and 2-aryloxyalkylaminobenzothiazoles” (Ortho Pharmaceutical Corporation, priority 1987, dated 1989).

Where two headings read alike, the source gives them in different places.

Consider `CCCCN(CCCC)CCCOc1cccc(/C=C/c2nc3ccccc3s2)c1` [Example 25], for which the IC50 was 200 nM in test [1] (Oryctolagus cuniculus, 20 min) and 330 nM in test [2] (Oryctolagus cuniculus, 20 min). The response vs control in vivo at 20 mg/kg with acid output (@ 20 mpK) was found to be 40%. In addition, the inhibition at 100 µM in test [3] was 61%.

As for `C(=C\c1nc2ccccc2o1)/c1cccc(OCCCn2ccnc2)c1` [Example 4], the IC50 in test [1] (Oryctolagus cuniculus, 20 min) came out at 210 nM; in test [2] (Oryctolagus cuniculus, 20 min), 340 nM; in test [3] it was 10 µM. Besides, the response vs control in vivo at 20 mg/kg with acid output (@ 20 mpK) worked out at 38%.

On to “(E)-2-[2-[4-(3-Methylbenzylaminopropoxy)phenyl]ethenyl]benzoxazole [Example 13]”, for which the IC50 worked out at 410 nM in test [1] (20 minutes), 1400 nM in test [2] (20 minutes) and 66 µM in test [3]. Further, the “% Acid Secreted at mpK” value with acid output (@ 20 mpK) is given as 34%.

`CCCCN(CCCC)CCCCOc1ccc(/C=C/c2nc3ccccc3o2)cc1` [Example 18]: the IC50 in test [1] (Oryctolagus cuniculus, 20 min) was 180 nM; in test [2] (Oryctolagus cuniculus, 20 min), less than 10000 nM; in test [3], 20 µM. For the same compound, the “% Acid Secreted at mpK” value in the test with acid output (@ 10 mpK) is given as 14%.

For `C(=C\c1nc2ccccc2o1)/c1ccc(OCCCCN2CCCCC2)cc1` [Example 19], the IC50 in test [1] (Oryctolagus cuniculus, 20 min) is 170 nM; in test [2] (Oryctolagus cuniculus, 20 min) it was 330 nM; in test [3], 40 µM. The response vs control in vivo at 20 mg/kg in the test on acid output (@ 20 mpK) is 42%.

For `CCCCN(CCCC)CCCOc1ccc(/C=C/c2nc3ccccc3s2)cc1` [Example 28, (E)-2-[2-(4-Dibutylaminopropoxyphenyl)ethenyl]benzothiazole], the IC50 in test [1] (Oryctolagus cuniculus, 20 min) worked out at 21000 nM; in test [2] (Oryctolagus cuniculus, 20 min) it was 450 nM. Besides, the “% Acid Secreted at mpK” value with acid output (@ 10 mpK) came out at 25%. In the test with acid output (@ 20 mpK), the response vs control in vivo at 20 mg/kg turned out to be 49%. The inhibition at 100 µM in test [3] amounted to 46%.

For `CCCN(CCC)CCCCOc1cccc(/C=C/c2nc3ccccc3o2)c1` [Example 5], the IC50 stood at 120 nM in test [1] (Oryctolagus cuniculus, 20 min); 310 nM in test [2] (Oryctolagus cuniculus, 20 min); 14 µM in test [3]. Further, the “% Acid Secreted at mpK” value in the test with acid output (@ 10 mpK) came to 25%. In the test on acid output (@ 20 mpK), the response vs control in vivo at 20 mg/kg amounted to 74%.

Regarding `CCCCN(CCCC)CCCOc1ccc(/C=C/c2nc3cc(C)ccc3o2)cc1` [Example 15, (E)-2-[2-(4-Dibutylaminopropoxyphenyl)ethenyl]-5-methylbenzoxazole], the IC50 in test [1] (Oryctolagus cuniculus, 20 min) stood at 260 nM; in test [2] (Oryctolagus cuniculus, 20 min), 340 nM; in test [3] it was 27 µM. Besides, the response vs control in vivo at 40 mg/kg in the test on acid output is 88%.

`CCN(CC)CCCCOc1ccc(/C=C/c2nc3ccccc3s2)cc1` [Example 41]: the IC50 was 180 nM in test [1] (Oryctolagus cuniculus, 20 min); 350 nM in test [2] (Oryctolagus cuniculus, 20 min); 44 µM in test [3]. Moreover, the response vs control in vivo at 20 mg/kg in the test with acid output (@ 20 mpK) came out at 52%.

Turning to `CN1CCN(CCCOc2cccc(/C=C/c3nc4ccccc4o3)c2)CC1` [Example 2, (E)-2-[2-[3-[3-(4-Methylpiperazino)propoxy]phenyl]ethenyl]benzoxazole], the IC50 worked out at 1200 nM in test [1] (Oryctolagus cuniculus, 20 min); 410 nM in test [2] (Oryctolagus cuniculus, 20 min); 94 µM in test [3]. In the test with acid output (@ 20 mpK), the response vs control in vivo at 20 mg/kg is 9%.

As for `CCCCN(CCCC)CCOc1ccc(/C=C/c2nc3ccccc3s2)cc1` [Example 37, (E)-2-[2-(4-Dibutylaminoethoxyphenyl)ethenyl]benzothiazole], the IC50 in test [1] (Oryctolagus cuniculus, 20 min) was 430 nM; in test [2] (Oryctolagus cuniculus, 20 min) it was 600 nM. The response vs control in vivo at 20 mg/kg in the test on acid output (@ 20 mpK) was 14%. In addition, in test [3], the inhibition at 100 µM stood at 43%.

In the case of `C(=C\c1nc2ccccc2s1)/c1cccc(OCCCCn2ccnc2)c1` [Example 27], the IC50 in test [1] (Oryctolagus cuniculus, 20 min) stood at 110 nM; in test [2] (Oryctolagus cuniculus, 20 min), 210 nM; in test [3], 4.7 µM. In addition, the response vs control in vivo at 20 mg/kg with acid output (@ 20 mpK) was found to be 42%. In the test with acid output, the response vs control in vivo at 40 mg/kg turned out to be 83%.

On to `CCCN(CCC)CCCOc1ccc(-c2nc3ccccc3s2)cc1` [Example 44, 2-(4-Dipropylaminopropoxyphenyl)benzothiazole], for which the IC50 in test [1] (Oryctolagus cuniculus, 20 min) stood at 210 nM; in test [2] (Oryctolagus cuniculus, 20 min), 140 nM. The response vs control in vivo at 20 mg/kg in the test on acid output (@ 20 mpK) amounted to 42%. Also, in test [3], the inhibition at 100 µM came out at 67%.

As for `C(=C\c1nc2ccccc2o1)/c1ccc(OCCCn2ccnc2)cc1` [Example 10, (E)-2-[2-(4-(1H-Imidazol-1-yl)propoxyphenyl)ethenyl]benzoxazole], the IC50 was 290 nM in test [1] (Oryctolagus cuniculus, 20 min); 250 nM in test [2] (Oryctolagus cuniculus, 20 min); 64 µM in test [3]. Besides, the response vs control in vivo at 20 mg/kg with acid output (@ 20 mpK) is 26%.

For `C(=C\c1nc2ccccc2o1)/c1ccc(OCCCN2CCCCC2)cc1` [Example 12, (E)-2-[2-[4-(3-Piperidinopropoxy)phenyl]ethenyl]benzoxazole], the IC50 was found to be 260 nM in test [1] (Oryctolagus cuniculus, 20 min); 150 nM in test [2] (Oryctolagus cuniculus, 20 min); 27 µM in test [3]. Moreover, the response vs control in vivo at 40 mg/kg with acid output was determined as 88%.

For the compound `CCCCN(CCCC)CCCOc1ccc(/C=C/c2nc3ccc(OC)cc3o2)cc1` [Example 16, (E)-2-[2-(4-Dibutylaminopropoxyphenyl)ethenyl]-6-methoxybenzoxazole], the IC50 in test [1] (Oryctolagus cuniculus, 20 min) turned out to be 80 nM; in test [2] (Oryctolagus cuniculus, 20 min) it was 50 nM; in test [3], 26 µM. Moreover, in the test on acid output, the response vs control in vivo at 40 mg/kg came to 64%.

Turning to `CCCN(CCC)CCCCOc1ccc(/C=C/c2nc3ccccc3o2)cc1Cl` [Example 45, (E)-2-[2-(3-Chloro-4-dipropylaminobutoxyphenyl]ethenyl]benzoxazole], the IC50 in test [1] (Oryctolagus cuniculus, 20 min) was 800 nM; in test [2] (Oryctolagus cuniculus, 20 min), 740 nM; in test [3], 17.5 µM. Moreover, the response vs control in vivo at 20 mg/kg in the test on acid output (@ 20 mpK) was 42%.

On to `CCN(CC)CCCCOc1ccc(/C=C/c2nc3ccccc3o2)cc1` [Example 22], for which the IC50 was 80 nM in test [1] (Oryctolagus cuniculus, 20 min); 120 nM in test [2] (Oryctolagus cuniculus, 20 min); 74 µM in test [3]. For the same compound, the response vs control in vivo at 20 mg/kg in the test on acid output (@ 20 mpK) stood at 31%.

For the compound `CCCCN(CCCC)CCCOc1ccc(/C=C/c2nc3ccccc3o2)cc1` [Example 8, (E)-2-[2-(4-Dibutylaminopropoxyphenyl)ethenyl]benzoxazole], the IC50 in test [1] (Oryctolagus cuniculus, 20 min) came to 150 nM; in test [2] (Oryctolagus cuniculus, 20 min) it was 150 nM. The “% Acid Secreted at mpK” value in the test with acid output (@ 10 mpK) is 44%. In the test on acid output, the response vs control in vivo at 40 mg/kg came out at 96%. In addition, in test [3], the inhibition at 100 µM stood at 17%.

Take `CCCCN(CCCC)CCCOc1ccc(/C=C/c2nc3cc(C)ccc3s2)cc1` [Example 34, (E)-2-[2-(4-Dibutylaminopropoxyphenyl)ethenyl]-5-methylbenzothiazole]: the IC50 in test [1] (Oryctolagus cuniculus, 20 min) is 290 nM; in test [2] (Oryctolagus cuniculus, 20 min), 530 nM. Further, the response vs control in vivo at 20 mg/kg in the test with acid output (@ 20 mpK) came to 14%. For the same compound, the inhibition at 100 µM in test [3] stood at 52%.
